What follows are molecules tested against T1, PI3K beta (Homo sapiens, UniProt P42338) (assay: PI3K beta kinase assay (Kinase-Glo luminescence)).
T1 construct: for the full-length p110-b subunit are generated and fused by overlapping PCR; p85(iSH2) fusion partner (see partner chain) (N); His tag (C); made in house; host or cells: baculovirus; Tn5 (Trichoplusia ni) or TiniPro insect cells
Format: biochemical
Summary of the method: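 IC50 is derived by four-parameter logistic curve fitting of Kinase-Glo luminescence, which measures ATP left after a 60 min room-temperature reaction. Conditions are 25 nM His-tagged p85(iSH2)-p110β, 1 μM ATP and 10 μg/mL bovine liver phosphatidylinositol.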

T1 sequence (P42338 with tags, fused parts or gaps limits assumed): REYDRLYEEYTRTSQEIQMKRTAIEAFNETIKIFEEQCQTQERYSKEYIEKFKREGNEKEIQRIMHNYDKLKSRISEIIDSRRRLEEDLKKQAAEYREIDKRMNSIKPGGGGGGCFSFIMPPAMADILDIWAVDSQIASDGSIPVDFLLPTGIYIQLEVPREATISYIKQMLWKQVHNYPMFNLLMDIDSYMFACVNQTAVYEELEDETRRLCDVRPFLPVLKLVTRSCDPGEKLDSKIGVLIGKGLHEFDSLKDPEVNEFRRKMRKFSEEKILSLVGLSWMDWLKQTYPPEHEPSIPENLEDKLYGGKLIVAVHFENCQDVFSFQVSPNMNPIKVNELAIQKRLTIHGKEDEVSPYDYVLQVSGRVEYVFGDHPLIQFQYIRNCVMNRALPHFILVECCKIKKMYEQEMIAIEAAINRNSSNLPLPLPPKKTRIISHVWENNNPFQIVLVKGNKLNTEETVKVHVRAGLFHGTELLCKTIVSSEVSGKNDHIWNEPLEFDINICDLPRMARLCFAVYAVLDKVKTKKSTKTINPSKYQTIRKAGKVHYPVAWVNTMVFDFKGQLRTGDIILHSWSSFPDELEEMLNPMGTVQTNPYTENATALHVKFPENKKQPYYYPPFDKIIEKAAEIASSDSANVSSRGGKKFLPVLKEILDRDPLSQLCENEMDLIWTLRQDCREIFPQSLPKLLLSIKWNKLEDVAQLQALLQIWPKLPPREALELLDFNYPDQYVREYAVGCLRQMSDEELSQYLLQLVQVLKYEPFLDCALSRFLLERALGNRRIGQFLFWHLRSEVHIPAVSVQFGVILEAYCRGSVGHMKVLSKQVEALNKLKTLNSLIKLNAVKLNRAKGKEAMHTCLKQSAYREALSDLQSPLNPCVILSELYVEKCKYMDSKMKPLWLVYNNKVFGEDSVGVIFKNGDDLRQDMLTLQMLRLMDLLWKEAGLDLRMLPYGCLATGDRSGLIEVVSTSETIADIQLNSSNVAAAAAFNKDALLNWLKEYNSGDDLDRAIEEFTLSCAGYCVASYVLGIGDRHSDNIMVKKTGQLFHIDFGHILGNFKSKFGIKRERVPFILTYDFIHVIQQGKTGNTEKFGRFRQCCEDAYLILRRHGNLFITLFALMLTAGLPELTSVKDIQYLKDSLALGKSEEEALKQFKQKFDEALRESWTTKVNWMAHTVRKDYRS

| Compound | IC50 [nM] |
| --- | --- |
| CNc1ncc(-c2ccc3ncc4c(c3c2)n(-c2cc(C)nn2C)c(=O)n4C)cc1Cl [Example 146.5, 8-(5-Chloro-6-methylamino-pyridin-3-yl)-1-(2,5-dimethyl-2H-pyrazol-3-yl)-3-methyl-1,3-dihydro-imidazo[4,5-c]quinolin-2-one] | 167 |
| CNc1ncc(-c2ccc3ncc4c(c3c2)n(-c2c(C)nn(C)c2C)c(=O)n4C)cc1Cl [Example 146.4, 8-(5-Chloro-6-methylamino-pyridin-3-yl)-3-methyl-1-(1,3,5-trimethyl-1H-pyrazol-4-yl)-1,3-dihydro-imidazo[4,5-c]quinolin-2-one] | 176 |
| CCN(C)C(=O)Cn1cc(-n2c(=O)n(C)c3cnc4ccc(-c5cncc(OC(C)C)c5)cc4c32)c(C)n1 [Example 58.5, N-Ethyl-2-{4-[8-(5-isopropoxy-pyridin-3-yl)-3-methyl-2-oxo-2,3-dihydro-imidazo[4,5-c]quinolin-1-yl]-3-methyl-pyrazol-1-yl}-N-methyl-acetamide] | 69 |
| Cc1nn(C)c(C)c1-n1c(=O)n(C)c2cnc3ccc(-c4cnc(N)c(F)c4)cc3c21 [Example 142.1, 8-(6-Amino-5-fluoro-pyridin-3-yl)-3-methyl-1-(1,3,5-trimethyl-1H-pyrazol-4-yl)-1,3-dihydro-imidazo[4,5-c]quinolin-2-one] | 201 |
| CCn1cc(-n2c(=O)n(C)c3cnc4ccc(-c5cnc(N)c(COC)c5)cc4c32)c(C)n1 [Example 168.2, 8-(6-Amino-5-methoxymethyl-pyridin-3-yl)-1-(1-ethyl-3-methyl-1H-pyrazol-4-yl)-3-methyl-1,3-dihydro-imidazo[4,5-c]quinolin-2-one] | 68 |
| CNc1ncc(-c2ccc3ncc4c(c3c2)n(-c2c(C)nn(C)c2C)c(=O)n4C)cc1F [Example 141.1, 8-(5-Fluoro-6-methylamino-pyridin-3-yl)-3-methyl-1-(1,3,5-trimethyl-1H-pyrazol-4-yl)-1,3-dihydro-imidazo[4,5-c]quinolin-2-one] | 469 |
| COc1ncc(-c2ccc3ncc4c(c3c2)n(-c2cn(C)nc2C)c(=O)n4C)cc1C(N)=O [Example 125.2, 5-[1-(1,3-Dimethyl-1H-pyrazol-4-yl)-3-methyl-2-oxo-2,3-dihydro-1H-imidazo[4,5-c]quinolin-8-yl]-2-methoxy-nicotinamide] | 93 |
| COc1ccc(-c2ccc3ncc4c(c3c2)n(-c2cc(C)nn2C)c(=O)n4C)cn1 [Example 2.3, 1-(2,5-Dimethyl-2H-pyrazol-3-yl)-8-(6-methoxy-pyridin-3-yl)-3-methyl-1,3-dihydro-imidazo[4,5-c]quinolin-2-one] | 180 |
| CCNc1cc(-c2ccc3ncc4c(c3c2)n(-c2c(C)nn(C)c2C)c(=O)n4C)cnc1F [Example 154.1, 8-(5-Ethylamino-6-fluoro-pyridin-3-yl)-3-methyl-1-(1,3,5-trimethyl-1H-pyrazol-4-yl)-1,3-dihydro-imidazo[4,5-c]quinolin-2-one] | 98 |
| COc1ncc(-c2ccc3ncc4c(c3c2)n(-c2cn(C)nc2C)c(=O)n4C)cc1NC(C)=O [Example 64, N-{5-[1-(1,3-Dimethyl-1H-pyrazol-4-yl)-3-methyl-2-oxo-2,3-dihydro-1H-imidazo[4,5-c]quinolin-8-yl]-2-methoxy-pyridin-3-yl}-acetamide] | 322 |
| CNc1ncc(-c2ccc3ncc4c(c3c2)n(-c2cn(C)nc2C)c(=O)n4C)cc1F [Example 141.2, 1-(1,3-Dimethyl-1H-pyrazol-4-yl)-8-(5-fluoro-6-methylamino-pyridin-3-yl)-3-methyl-1,3-dihydro-imidazo[4,5-c]quinolin-2-one] | 142 |
| Cc1nn(C)cc1-n1c(=O)n(C)c2cnc3ccc(-c4cnc5cc[nH]c5c4)cc3c21 [Example 99, 1-(1,3-Dimethyl-1H-pyrazol-4-yl)-3-methyl-8-(1H-pyrrolo[3,2-b]pyridin-6-yl)-1,3-dihydro-imidazo[4,5-c]quinolin-2-one] | 33 |
| Cc1ncc(-c2ccc3ncc4c(c3c2)n(-c2cn(C)nc2C)c(=O)n4C)cc1N(C)C [Example 164, 8-(5-Dimethylamino-6-methyl-pyridin-3-yl)-1-(1,3-dimethyl-1H-pyrazol-4-yl)-3-methyl-1,3-dihydro-imidazo[4,5-c]quinolin-2-one] | 11 |
| Cc1ncc(-c2ccc3ncc4c(c3c2)n(-c2cn(C)nc2C)c(=O)n4C)cc1O [Example 185.1, 1-(1,3-Dimethyl-1H-pyrazol-4-yl)-8-(5-hydroxy-6-methyl-pyridin-3-yl)-3-methyl-1,3-dihydro-imidazo[4,5-c]quinolin-2-one] | 9 |

Next, values leading:

| IC50 [nM] | Compound |
| --- | --- |
| 19 | Cc1nn(C)cc1-n1c(=O)n(C)c2cnc3ccc(-c4cncc(C5(O)CCCC5)c4)cc3c21 [Example 218, 1-(1,3-Dimethyl-1H-pyrazol-4-yl)-8-[5-(1-hydroxy-cyclopentyl)-pyridin-3-yl]-3-methyl-1,3-dihydro-imidazo[4,5-c]quinolin-2-one] |
| 13 | COCc1cc(-c2ccc3ncc4c(c3c2)n(-c2cn(C)nc2C)c(=O)n4C)cnc1OC [Example 202, 1-(1,3-Dimethyl-1H-pyrazol-4-yl)-8-(6-methoxy-5-methoxymethyl-pyridin-3-yl)-3-methyl-1,3-dihydro-imidazo[4,5-c]quinolin-2-one] |
| 163 | COCc1ncc(-c2ccc3ncc4c(c3c2)n(-c2cn(C(C)C)nc2C)c(=O)n4C)cc1OC [Example 195.2, 1-(1-Isopropyl-3-methyl-1H-pyrazol-4-yl)-8-(5-methoxy-6-methoxymethyl-pyridin-3-yl)-3-methyl-1,3-dihydro-imidazo[4,5-c]quinolin-2-one] |
| 280 | CNC(=O)c1cc(-c2ccc3ncc4c(c3c2)n(-c2cn(C(C)C)nc2C)c(=O)n4C)cnc1N [Example 224.2, 2-Amino-5-[1-(1-isopropyl-3-methyl-1H-pyrazol-4-yl)-3-methyl-2-oxo-2,3-dihydro-1H-imidazo[4,5-c]quinolin-8-yl]-N-methyl-nicotinamide] |
| 273 | Cc1nn(C)cc1-n1c(=O)n(C)c2cnc3ccc(-c4cnc5c(c4)OCCN5C)cc3c21 [Example 209, 1-(1,3-Dimethyl-1H-pyrazol-4-yl)-3-methyl-8-(4-methyl-3,4-dihydro-2H-pyrido[3,2-b][1,4]oxazin-7-yl)-1,3-dihydro-imidazo[4,5-c]quinolin-2-one] |
| 36 | Cc1nn(C)cc1-n1c(=O)n(C)c2cnc3ccc(-c4cnc(CO)c(OC(C)C)c4)cc3c21 [Example 190, 1-(1,3-Dimethyl-1H-pyrazol-4-yl)-8-(6-hydroxymethyl-5-isopropoxy-pyridin-3-yl)-3-methyl-1,3-dihydro-imidazo[4,5-c]quinolin-2-one] |
| 27 | [2H]C([2H])([2H])OCc1ncc(-c2ccc3ncc4c(c3c2)n(-c2cn(C)nc2Cl)c(=O)n4C)cc1OC [Example 199, 1-(3-Chloro-1-methyl-1H-pyrazol-4-yl)-8-(5-methoxy-6-trideuteromethoxymethyl-pyridin-3-yl)-3-methyl-1,3-dihydro-imidazo[4,5-c]quinolin-2-one] |
| 72 | COCc1ncc(-c2ccc3ncc4c(c3c2)n(-c2cn(C)nc2C)c(=O)n4C)cc1OC [Example 195.1, 1-(1,3-Dimethyl-1H-pyrazol-4-yl)-8-(5-methoxy-6-methoxymethyl-pyridin-3-yl)-3-methyl-1,3-dihydro-imidazo[4,5-c]quinolin-2-one] |
